In brackets after ≈: the same amount, converted by molar mass.
Key:
[1] = tested on: HIV-1IIIB; assay: microbe, parasite or virus in culture; assay type: cell-based, human immunodeficiency virus type-1; conditions: Human immunodeficiency virus 1, MT4, read-out: EC50 HIV-1IIIB
[2] = in vitro; conditions: human
[3] = in vitro; conditions: African green monkey (Cercopithecus aethiops)
[4] = tested on: HSV-1; assay: Plaque reduction in Vero-76 monolayers, HSV-1; assay type: cell-based, human herpes virus 1; conditions: Human alphaherpesvirus 1, reference compound
[5] = tested on: Sb-1; assay: microbe, parasite or virus in culture; assay type: cell-based, human enterovirus C (polio virus type-1); conditions: Enterovirus C, Vero 76, read-out: EC50 Sb-1
[6] = tested on: CV-B4; assay: Plaque reduction in Vero-76 monolayers, CV-B4; assay type: cell-based, human enterovirus B (coxsackie virus B4); conditions: Enterovirus B, CVB4, reference compound
[7] = in vitro; conditions: Syrian hamster (Mesocricetus auratus)
[8] = tested on: Reo-1; assay: microbe, parasite or virus in culture; assay type: cell-based, reovirus type-1; conditions: Reovirus sp., BHK, read-out: EC50 Reo-1
[9] = tested on: BVDV; assay: microbe, parasite or virus in culture; assay type: cell-based, bovine viral diarrhoea virus; conditions: Bovine viral diarrhea virus isolates and strains, MDBK, in Bos taurus, read-out: EC50 BVDV
[10] = in vitro; conditions: cattle (Bos taurus)
[11] = tested on: YFV; assay: microbe, parasite or virus in culture; assay type: cell-based; conditions: Yellow fever virus, BHK, read-out: EC50 YFV
[12] = tested on: S. aureus; conditions: β-caryophyllene from Aquilaria crassna essential oil; cited from earlier work
[13] = tested on: RSV; assay: Plaque reduction in Vero-76 monolayers, RSV; assay type: cell-based; conditions: human respiratory syncytial virus, reference compound

Structure (SMILES): O=C1Nc2ccc(Cl)cc2[C@@](C#CC2CC2)(C(F)(F)F)O1 [RC1, Efavirenz]
- EC50 [1]: 0.003 ± 0.0003 µM
- CC50 [2]: 40 µM

Structure (SMILES): COc1c(C)c2c(c(O)c1C/C=C(\C)CCC(=O)O)C(=O)OC2 [RC6, Mycophenolic acid]
- CC50 [3]: > 100 µM

Structure (SMILES): Nc1nc2c(ncn2COCCO)c(=O)[nH]1 [RC5, Acycloguanosine]
- CC50 [3]: > 100 µM
- EC50 [4]: 3 ± 0.1 µM

Structure (SMILES): Cc1cc(CCCOc2c(C)cc(-c3noc(C(F)(F)F)n3)cc2C)on1 [RC3, Pleconaril]
- EC50 [5]: 2 µM
- EC50 [6]: 2 ± 0.5 µM
- CC50 [3]: > 100 µM

Structure (SMILES): C[C@@]1(O)[C@H](O)[C@@H](CO)O[C@H]1n1ccc(N)nc1=O [RC7, 2′-C-methylcytidine]
- CC50 [7]: > 100 µM
- EC50 [8]: 17 µM

Structure (SMILES): C[C@@]1(O)[C@H](O)[C@@H](CO)O[C@H]1n1cnc2c(=O)[nH]c(N)nc21 [RC2, 2′-C-methylguanosine]
- EC50 [9]: 1.7 ± 0.3 µM
- CC50 [7]: 80 µM
- CC50 [10]: > 100 µM
- EC50 [11]: 1.4 ± 0.2 µM

Structure (SMILES): C=C1CC/C=C(\C)CC[C@@H]2[C@@H]1CC2(C)C [β-caryophyllene]
- MIC [12]: 3 ± 0.4 µM (≈ 0.613 µg/mL)

Structure (SMILES): O=c1cnn([C@@H]2O[C@H](CO)[C@@H](O)[C@H]2O)c(=O)[nH]1 [RC4, 6-aza-uridine]
- EC50 [13]: 2 ± 0.2 µM
- CC50 [3]: ≥ 14 µM

From PMC7235712, “Biological Activities of Essential Oils from Leaves of Paramignya trimera (Oliv.) Guillaum and Limnocitrus littoralis (Miq.) Swingle” (Antibiotics, 2020)
